Results as given in ChEMBL document CHEMBL1201862, “PubChem BioAssay data set” (2004).
Calls of active or inactive are those of the source.

What was measured:
[1] = target: T1, G-protein coupled receptor 55 (Homo sapiens, UniProt Q9Y2T6); assay: inhibition of LPI-stimulated GPR55 beta-arrestin translocation – imaging, U2OS, beta-arrestin-GFP, LPI agonist, primary screen (AID 2013); assay type: functional;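 also: antagonist potency measured as reduced agonist-driven arrestin aggregation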
[2] = target: T2, Corticotropin-releasing factor receptor 2/Corticotropin-releasing factor-binding protein (Homo sapiens, UniProt P24387+Q13324); assay: Dose Response confirmation of uHTS hits for small molecule antagonists of the CRF-binding protein and CRF-R2 receptor complex.; assay type: functional; details: read-out: IC50_Mean
T2 sequence (Q13324 whole entry): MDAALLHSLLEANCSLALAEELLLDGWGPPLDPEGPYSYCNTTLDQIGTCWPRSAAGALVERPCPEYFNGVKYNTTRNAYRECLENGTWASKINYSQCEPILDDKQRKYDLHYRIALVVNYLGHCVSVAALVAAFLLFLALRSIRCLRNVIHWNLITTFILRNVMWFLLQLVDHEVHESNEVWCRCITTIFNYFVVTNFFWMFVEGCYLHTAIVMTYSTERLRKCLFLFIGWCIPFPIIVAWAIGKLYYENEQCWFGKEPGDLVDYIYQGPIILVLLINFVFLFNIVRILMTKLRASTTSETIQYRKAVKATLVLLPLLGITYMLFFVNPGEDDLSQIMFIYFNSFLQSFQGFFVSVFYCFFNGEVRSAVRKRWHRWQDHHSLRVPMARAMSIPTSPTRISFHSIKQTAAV
T2 sequence (P24387 whole entry): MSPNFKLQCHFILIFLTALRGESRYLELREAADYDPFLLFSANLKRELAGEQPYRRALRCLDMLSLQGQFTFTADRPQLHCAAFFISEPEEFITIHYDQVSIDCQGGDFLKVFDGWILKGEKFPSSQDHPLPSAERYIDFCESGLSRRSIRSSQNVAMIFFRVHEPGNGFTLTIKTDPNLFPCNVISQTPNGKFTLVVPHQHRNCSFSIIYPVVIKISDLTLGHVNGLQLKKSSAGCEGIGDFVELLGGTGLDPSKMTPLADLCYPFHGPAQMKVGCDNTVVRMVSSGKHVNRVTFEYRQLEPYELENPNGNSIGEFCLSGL

[3] = target: T3, Cannabinoid receptor 2 (Homo sapiens, UniProt P34972); assay: SAR analysis of antagonists of the Cannabinoid Receptor 2 using an Image-Based Assay. [Related pubchem assays (depositor defined):AID2013, AID2026]; assay type: functional
[4] = target: T2, Corticotropin-releasing factor receptor 2/Corticotropin-releasing factor-binding protein; assay: activators of CRF receptor 2 with binding protein – uHTS hits, confirmation (AID 602473); assay type: functional; details: read-out: EC50_Mean
[5] = target: T4, Cannabinoid receptor 1 (Homo sapiens, UniProt P21554); assay: SAR analysis of antagonists of the Cannabinoid Receptor 1 using an Image-Based Assay - Set 2. [Related pubchem assays (depositor defined):AID2013, AID2026]; assay type: functional
[6] = target: T3, Cannabinoid receptor 2; assay: SAR analysis of agonists of the Cannabinoid Receptor 2 using an Image-Based Assay. [Related pubchem assays (depositor defined):AID2013, AID2026]; assay type: functional
[7] = target: T1, G-protein coupled receptor 55; assay: blockade of LPI-induced GPR55 arrestin translocation – imaging, U2OS, beta-arrestin-GFP, LPI agonist, set 2, SAR follow-up (AID 2820); assay type: functional
[8] = target: T5, G-protein coupled receptor 35 (Homo sapiens, UniProt Q9HC97); assay: SAR analysis of Antagonists of the GPR35 Receptor using an Image-Based Assay - Set 3. [Related pubchem assays (depositor defined):AID2013, AID2026]; assay type: functional
[9] = target: T5, G-protein coupled receptor 35; assay: SAR analysis of Agonists of the GPR35 Receptor using an Image-Based Assay - Set 2. [Related pubchem assays (depositor defined):AID2013, AID2026]; assay type: functional
[10] = target: T4, Cannabinoid receptor 1; assay: SAR analysis of agonists of the Cannabinoid Receptor 1 using an Image-Based Assay - Set 2. [Related pubchem assays (depositor defined):AID2013, AID2026]; assay type: functional
[11] = tested on: HEK293; assay: cells; assay type: functional, cell-based; details: Homo sapiens
[12] = tested on: HEK293; assay: cells; assay type: functional, cell-based; details: Homo sapiens; remark: listed apart in the source
[13] = target: Nucleotide-binding oligomerization domain-containing protein 2 (Homo sapiens, UniProt Q9HC29); assay: inhibition of NOD2-driven NF-kB reporter – cell-based, luminescence, uHTS, HEK293 (AID 1566); assay type: functional
[14] = tested on: HEK293; assay: NOD2 signaling inhibitors in MDP-stimulated cells, cell-based, uHTS, luminescence (AID 2001); assay type: functional; details: Homo sapiens
[15] = tested on: HEK293; assay: cells; assay type: functional, cell-based; details: Homo sapiens; remark: listed apart in the source
[16] = tested on: HEK293; assay: inhibition of NOD1-driven NF-kB reporter – cell-based, luminescence, uHTS, primary screen (AID 1578); assay type: functional; details: Homo sapiens
[17] = target: T6, Replicative DNA helicase DnaB (Mycobacterium tuberculosis, UniProt P9WMR3); assay: DnaB intein splicing inhibitors, dose response, biochemical, cell-free fluorescence (AID 449749); assay type: functional
T6 sequence (P9WMR3 whole entry): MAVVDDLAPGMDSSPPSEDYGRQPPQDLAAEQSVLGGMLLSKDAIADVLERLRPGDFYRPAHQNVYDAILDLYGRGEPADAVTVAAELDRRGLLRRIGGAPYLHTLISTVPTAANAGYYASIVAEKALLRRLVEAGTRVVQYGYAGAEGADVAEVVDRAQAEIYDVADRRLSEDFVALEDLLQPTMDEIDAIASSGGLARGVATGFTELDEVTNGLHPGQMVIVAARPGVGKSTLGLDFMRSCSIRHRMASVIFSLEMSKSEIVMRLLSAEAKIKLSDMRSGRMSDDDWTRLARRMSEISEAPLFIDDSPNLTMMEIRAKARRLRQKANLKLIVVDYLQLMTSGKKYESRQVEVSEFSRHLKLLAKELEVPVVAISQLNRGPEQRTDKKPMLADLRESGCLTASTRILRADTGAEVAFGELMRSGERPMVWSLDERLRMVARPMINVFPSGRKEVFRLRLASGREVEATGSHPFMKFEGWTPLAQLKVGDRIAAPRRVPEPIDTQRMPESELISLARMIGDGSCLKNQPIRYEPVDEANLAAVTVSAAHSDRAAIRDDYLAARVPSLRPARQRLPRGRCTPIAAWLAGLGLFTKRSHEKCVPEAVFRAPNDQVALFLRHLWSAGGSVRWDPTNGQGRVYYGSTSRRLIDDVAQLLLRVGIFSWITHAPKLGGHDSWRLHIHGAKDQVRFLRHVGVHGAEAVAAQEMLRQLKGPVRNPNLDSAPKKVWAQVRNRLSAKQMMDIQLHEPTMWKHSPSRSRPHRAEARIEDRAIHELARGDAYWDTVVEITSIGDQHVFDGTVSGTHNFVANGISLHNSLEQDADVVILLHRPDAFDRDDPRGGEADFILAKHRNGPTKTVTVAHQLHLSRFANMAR

[18] = target: Eukaryotic translation initiation factor 4E (Mus musculus, UniProt P63073); assay: blockers of eIF4G binding by eIF4E – biochemical, TR-FRET, dose response (AID 855); assay type: functional;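 also: potency for disrupting eIF4E binding to eIF4GI seen as loss of FRET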
[19] = target: T7, Protein RecA (Mycobacterium tuberculosis, UniProt P9WHJ3); assay: Fluorescence Cell-Free Homogeneous Dose Retest to Identify Inhibitors of RecA-Intein Splicing Activity. [Related pubchem assays (depositor defined):AID2097, AID2223, AID489010, AID492950]; assay type: functional
T7 sequence (P9WHJ3 whole entry): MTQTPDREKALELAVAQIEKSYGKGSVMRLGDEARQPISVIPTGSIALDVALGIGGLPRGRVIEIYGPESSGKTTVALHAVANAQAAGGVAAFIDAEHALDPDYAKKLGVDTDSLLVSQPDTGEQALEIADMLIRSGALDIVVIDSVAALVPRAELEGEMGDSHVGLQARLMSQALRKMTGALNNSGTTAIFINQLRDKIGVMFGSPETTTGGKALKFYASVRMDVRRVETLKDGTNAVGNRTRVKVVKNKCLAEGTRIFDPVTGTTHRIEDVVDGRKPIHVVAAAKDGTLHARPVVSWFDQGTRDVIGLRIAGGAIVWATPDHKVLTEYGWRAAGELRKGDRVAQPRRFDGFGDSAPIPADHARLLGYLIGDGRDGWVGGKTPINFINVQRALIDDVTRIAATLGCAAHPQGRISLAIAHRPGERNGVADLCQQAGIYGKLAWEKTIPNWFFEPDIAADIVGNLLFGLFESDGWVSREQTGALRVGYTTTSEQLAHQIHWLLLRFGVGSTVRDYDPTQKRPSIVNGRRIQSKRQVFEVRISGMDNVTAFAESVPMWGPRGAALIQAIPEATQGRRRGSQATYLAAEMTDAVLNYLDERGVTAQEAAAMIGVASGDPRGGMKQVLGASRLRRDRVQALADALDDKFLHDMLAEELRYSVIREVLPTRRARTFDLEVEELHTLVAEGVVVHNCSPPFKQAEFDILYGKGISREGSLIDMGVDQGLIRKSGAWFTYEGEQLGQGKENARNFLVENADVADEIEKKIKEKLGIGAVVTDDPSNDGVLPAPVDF

T1 sequence (Q9Y2T6 whole entry): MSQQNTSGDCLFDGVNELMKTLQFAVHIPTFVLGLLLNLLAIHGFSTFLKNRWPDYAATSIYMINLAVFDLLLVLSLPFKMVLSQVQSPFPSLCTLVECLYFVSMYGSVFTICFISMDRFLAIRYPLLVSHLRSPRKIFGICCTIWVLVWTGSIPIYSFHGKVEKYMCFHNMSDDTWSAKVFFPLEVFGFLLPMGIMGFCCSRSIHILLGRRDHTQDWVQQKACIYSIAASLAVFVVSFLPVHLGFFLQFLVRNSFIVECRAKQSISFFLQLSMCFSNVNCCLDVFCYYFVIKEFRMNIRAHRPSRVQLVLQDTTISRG
T3 sequence (P34972 whole entry): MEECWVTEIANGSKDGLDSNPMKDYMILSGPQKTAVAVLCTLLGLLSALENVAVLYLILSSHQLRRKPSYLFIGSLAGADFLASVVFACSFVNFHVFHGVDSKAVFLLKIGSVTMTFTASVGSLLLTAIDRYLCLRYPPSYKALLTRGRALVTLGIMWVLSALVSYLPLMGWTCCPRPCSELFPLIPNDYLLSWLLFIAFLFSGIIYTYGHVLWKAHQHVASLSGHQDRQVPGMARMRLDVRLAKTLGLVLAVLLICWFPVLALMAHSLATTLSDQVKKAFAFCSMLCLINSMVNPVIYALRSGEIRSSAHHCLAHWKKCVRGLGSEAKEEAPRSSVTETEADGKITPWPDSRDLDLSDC
T4 sequence (P21554 whole entry): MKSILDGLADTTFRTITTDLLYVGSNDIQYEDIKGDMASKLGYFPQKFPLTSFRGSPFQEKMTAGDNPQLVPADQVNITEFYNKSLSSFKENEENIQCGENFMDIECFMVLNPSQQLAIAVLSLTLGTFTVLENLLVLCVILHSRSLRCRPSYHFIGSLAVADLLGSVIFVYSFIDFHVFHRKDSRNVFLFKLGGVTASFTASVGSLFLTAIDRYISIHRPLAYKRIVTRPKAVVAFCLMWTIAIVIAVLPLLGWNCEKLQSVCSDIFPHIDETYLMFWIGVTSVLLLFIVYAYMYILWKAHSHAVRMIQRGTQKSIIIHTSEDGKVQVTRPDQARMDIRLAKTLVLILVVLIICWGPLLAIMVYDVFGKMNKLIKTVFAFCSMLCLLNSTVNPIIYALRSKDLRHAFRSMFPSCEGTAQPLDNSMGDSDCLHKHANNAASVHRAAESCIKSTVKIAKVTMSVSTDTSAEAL
T5 sequence (Q9HC97 whole entry): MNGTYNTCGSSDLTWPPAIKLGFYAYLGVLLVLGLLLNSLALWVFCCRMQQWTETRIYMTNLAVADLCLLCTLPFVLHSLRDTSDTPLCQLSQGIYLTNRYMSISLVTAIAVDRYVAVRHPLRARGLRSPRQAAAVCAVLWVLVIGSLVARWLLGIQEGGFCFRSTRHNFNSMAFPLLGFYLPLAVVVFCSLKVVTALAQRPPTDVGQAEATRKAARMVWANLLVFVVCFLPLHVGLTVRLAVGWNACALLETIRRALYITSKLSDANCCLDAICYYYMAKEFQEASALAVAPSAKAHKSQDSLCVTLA
Chain of Eukaryotic translation initiation factor 4E (P63073 whole entry): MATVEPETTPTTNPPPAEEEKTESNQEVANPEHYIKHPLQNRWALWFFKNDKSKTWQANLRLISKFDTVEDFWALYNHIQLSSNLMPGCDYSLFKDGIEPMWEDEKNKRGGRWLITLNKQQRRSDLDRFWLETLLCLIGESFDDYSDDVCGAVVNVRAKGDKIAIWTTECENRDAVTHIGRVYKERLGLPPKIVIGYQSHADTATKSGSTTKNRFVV
Chain of Nucleotide-binding oligomerization domain-containing protein 2 (Q9HC29 whole entry, the tested form may be a part): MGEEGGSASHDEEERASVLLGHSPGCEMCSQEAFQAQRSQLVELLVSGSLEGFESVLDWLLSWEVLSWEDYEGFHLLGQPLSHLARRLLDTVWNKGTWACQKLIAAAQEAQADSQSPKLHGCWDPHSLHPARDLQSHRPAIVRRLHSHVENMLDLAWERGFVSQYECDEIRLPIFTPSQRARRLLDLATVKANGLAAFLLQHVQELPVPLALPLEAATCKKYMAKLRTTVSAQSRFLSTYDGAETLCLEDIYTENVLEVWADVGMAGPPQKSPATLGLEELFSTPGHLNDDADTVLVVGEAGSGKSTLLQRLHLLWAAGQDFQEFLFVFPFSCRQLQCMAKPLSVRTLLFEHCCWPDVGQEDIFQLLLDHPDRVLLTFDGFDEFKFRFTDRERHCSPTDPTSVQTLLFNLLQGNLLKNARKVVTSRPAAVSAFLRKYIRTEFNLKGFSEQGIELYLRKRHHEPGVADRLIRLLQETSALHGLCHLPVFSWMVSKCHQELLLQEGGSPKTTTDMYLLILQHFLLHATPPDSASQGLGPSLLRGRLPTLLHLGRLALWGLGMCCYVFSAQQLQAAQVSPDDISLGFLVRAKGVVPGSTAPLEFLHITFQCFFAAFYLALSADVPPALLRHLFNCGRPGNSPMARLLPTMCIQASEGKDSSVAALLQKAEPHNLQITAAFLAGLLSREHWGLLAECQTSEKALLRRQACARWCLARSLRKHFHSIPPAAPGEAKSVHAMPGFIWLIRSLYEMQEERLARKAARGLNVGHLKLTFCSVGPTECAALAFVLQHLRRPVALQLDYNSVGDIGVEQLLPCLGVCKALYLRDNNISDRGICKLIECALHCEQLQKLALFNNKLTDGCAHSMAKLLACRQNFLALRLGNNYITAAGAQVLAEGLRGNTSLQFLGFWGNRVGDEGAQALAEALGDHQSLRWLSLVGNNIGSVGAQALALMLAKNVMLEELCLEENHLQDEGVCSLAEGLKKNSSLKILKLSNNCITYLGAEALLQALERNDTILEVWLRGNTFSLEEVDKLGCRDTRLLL

## COC(=O)C1=C(N)c2c(F)cccc2C1(C#N)c1ccccc1 (centres undefined)
[1]
  IC50: 2.34 µM (active)
[2]
  IC50: > 47.1 µM (inactive)
[3]
  IC50: > 32 µM (inactive)
[4]
  EC50: > 53 µM (inactive)
[5]
  IC50: > 32 µM (inactive)
[6]
  EC50: > 32 µM (inactive)
[7]
  IC50: 0.928 µM (active)
[8]
  IC50: > 32 µM (inactive)
[9]
  EC50: > 32 µM (inactive)
[10]
  EC50: > 32 µM (inactive)

## Cc1cc(C(=O)CSc2nnc(-c3ccco3)o2)c(C)n1-c1ccc2c(c1)OCCO2
[11]
  IC50: > 20 µM (inactive)
[12]
  IC50: > 20 µM (inactive)
[13]
  EC50: > 20 µM (inactive)
[14]
  IC50: 14.5 µM (inactive)
[15]
  IC50: 13.3 µM (active)
[16]
  EC50: 5.37 µM (active)

## N#Cc1c(Cl)c(Cl)c2nnc(-c3ccc(Br)cc3)n2c1Cl
[17]
  AC50: 10.2 µM (active)
[18]
  IC50: > 64 µM (inactive)
[19]
  EC50: 9.3 µM (active)
